The subject of series [1] is MMP-13. The series can be described thus: OSM-stimulated pro-MMP-13 production in dedifferentiated primary chondrocytes. The conditions noted are these: FIG. 12D, listed as CA4. Format: cell-based.
Series [2] in a line: Plasma concentration of CA4 from osmotic pump by LC/MS. The class given is in vivo, mouse. The conditions noted are these: 33 mg/ml dose by the pump (16 mg/kg/day), day 3 and 7. The procedure: CA4 at 50, 33, and 0 (vehicle) mg/ml in osmotic pumps (0.5 ul/hr; equivalent to 25, 16 and 0 mg/kg/day) was administered subcutaneously to murine collagen-induced arthritis model usin ghte B10RIII strain 12 days after the 1st immunization (day 0) of type II collagen. The 33 mg/ml dose by the pump produced a plasma concentration of CA4 of approximately 30 nM on day 3 and 7 as measured by LC/MS. Dexamethasone at 0.2 mg/kg was injected daily subcutaneously as a positive control.

Series [3] concerns MMP-13. The series can be described thus: IL-1-stimulated pro-MMP-13 production in SW1353 cells (ELISA). Format: cell-based. Conditions: Homo sapiens, IL-1 alone. The procedure: (§1) For matrix metalloproteinase (MMP) measures, SW1353 cells were grown to confluence in 24 well plates, washed in DMEM (with Ham's F12) and placed in 500 ul of serum free DMEM/F-12 with 0.2% lactalbumin hydrosylate with and without OsM/IL-1. After 24 hrs, supernatants were collected and the amounts of proMMP13, totalMMP2, and proMMP1 were measured using Quantikine® ELISA kit for human MMPs (R & D systems, Minneapolis, Minn.). All MMP measures were normalized to viable cell numbers based on a tetrazolium (MTS) colorimetric measure (Promega, Madison, Wis.).
The human chondrosarcoma cell line, SW1353, was used as the cell system for examining CA4's effect on OSM- and IL-1-mediated signal transduction. […] Therefore, MMP-13 was used as a surrogate marker of CA4 effects on OSM and IL-1 signaling in SW1353 cells. […] This observation is in agreement with that obtained with the 4A1 Sentinel® reporter line.
For orientation: An ELISA detects its analyte on a solid surface through an enzyme-linked reagent.

The subject of the next series is OSM signaling. The series can be described thus: OSM-responsive SW1353 Sentinel cell line luciferase reporter. Format: cell-based, human. Conditions: FIG. 12C, listed as CA4. An excerpt:
Taken together, it appears that CA4 interferes as well with OSM signal transduction that led to the synergistic upregulation of pro-MMP-13 by OSM/IL-1 in SW1353 cells.
(A reporter such as luciferase makes a cellular process visible.)

Another series has as its system MMP-2. The series can be described thus: MMP-2 production in SW1353 cells (ELISA, control). Format: cell-based, human. The protocol: MMP-2 production can be used as control for the potential side-effects of compounds. This is because MMP-2 levels are not believed to change in response to IL-1/OSM.
(§2) The same supernatants of culture media used in the primary screen were assayed for IL-1/OSM-stimulated pro-MMP-13 production and MMP-2 production by enzyme-linked immunosorbent assay (ELISA).
as §1
Multiple control assays were performed to investigate the selectivity of CA4 action. Matrix metalloproteinase-2 (MMP-2) production in SW1353 cells was tested. Mutation of MMP-2 causes a multicentric osteolysis and arthritis syndrome (Martignetti et al., Nat Genet 28, 261-265 (2001) the entire contents of which are incorporated herein by reference), and theoretically its expression should not be affected in treating RA. CA4 at approximately 110 nM had no effect on production of MMP-2 (FIG. 12E). An A549 Sentinel line that responded to TGF-β was then tested.

The test system of series [4] is MMP-13. The series can be described thus: IL-1/OSM-stimulated pro-MMP-13 production in SW-1353 cells (ELISA). Format: cell-based, human. The conditions noted are these: Homo sapiens.
Text: To test the compounds identified in the preliminary reporter (luciferase) activity […]® line 4A1 screen for inhibition of OSM signaling in a more physiologically relevant environment, a human cell line involved in an inflammatory disease was adapted. The human cartilage cell line SW-1353 was selected.
In the human cartilage cell line SW-1353, while IL-1 is believed to activate expression of collagenases to a small degree and OSM is believed to have no effect on collagenase expression, a combination of IL-1 and OSM is believed to lead to a synergistic activation of collagenases to much higher levels (S. Cowell et al., Biochem J 331 (Pt 2), 453 (Apr. 15, 1998). Regulation of MMP-13 in SW-1353 cells is, therefore, believed to provide a biomarker which can be used to monitor IL-1/OSM-mediated signal transduction events in secondary assays.
as §2, §1

Series [5] relates to murine collagen-induced arthritis (CIA) model. The series can be described thus: Murine collagen-induced arthritis (CIA) model. The class given is in vivo. The protocol: Male 6-8 week old B10RIII (Jackson Labs) mice were immunized at day 0, followed by a booster immunization on day 15.
Clinical scores started on day 16 and continued daily. Mice were sacrificed on day 26. Clinical scores of mouse paws were based on a 0-5 scoring system with 0 being normal and 5 being the most severe edema and erythema conditions. ELISAs on collected plasma samples were performed using commercial kits: IL-1β (R & D systems, Minneapolis, Minn.), anti-collagen II (Chondrex, Redmont, Wash.), and Rheumatoid Factors (IgG) (Alpha Diagnostic International, San Antonio, Tex.).
CA4 at 50, 33, and 0 (vehicle) mg/ml in osmotic pumps (0.5 ul/hr; equivalent to 25, 16 and 0 mg/kg/day) was administered subcutaneously to murine collagen-induced arthritis model usin ghte B10RIII strain 12 days after the 1st immunization (day 0) of type II collagen. […] Dexamethasone at 0.2 mg/kg was injected daily subcutaneously as a positive control.

Entries after “also recorded” stand apart in the source; their conditions may differ.

With `COc1ccc(/C=C\c2cc(OC)c(OC)c(OC)c2)cc1O` [Combretastatin A4 (1), (Z)-5-(3,4,5-trimethoxystyryl)-2-methoxyphenol], the “OSM-stimulated pro-MMP-13 production” value in the series on MMP-13 [1] was “inhibited OSM-stimulated pro-MMP-13 production dose-dependently”. Besides, in series [2], the plasma concentration result is listed as “approximately 30 nM”. The IC50 was 5.2 ± 1.9 nM with MMP-13 [3]; 2 nM in the series with MMP-13 [4] (SW1353, SW-1353, IL-1/OSM-stimulated, secondary screen (Example 2), read-out: IC50, inhibition of MMP-13 (pro-MMP-13) production); 5.6 ± 1.3 nM in the series with MMP-13 [4] (SW1353 cells, mean (Examples 8, 10), read-out: IC50 values by pro-MMP-13 (OSM/IL-1-mediated production)). In addition, the “OSM-induced reporter luciferase activity” value in the series on OSM signaling is reported as “dose-dependently inhibited the reporter luciferase activity”. Moreover, the “effect on production of MMP-2” value in the series on MMP-2 (SW1353, CA4 at approximately 110 nM, FIG. 12E, listed as CA4) was “no effect; also recorded: failed to inhibit MMP-2 production”. Moreover, the “inhibitory effect on MMP-13 expression compared to MMP-2 expression” value in the series on MMP-2 (SW-1353, FIG. 5, listed as 1) was “greater inhibitory effects on MMP-13 expression compared to MMP-2 expression; also recorded: preferentially inhibit MMP-13 expression compared to MMP-2 expression”. For the same molecule, the knee joint histopathology result is “intermediate joint histopathological damages” in series [5] (16 mg/kg/day by osmotic pumps); “only minimal synovitis, minimal proteoglycan and cartilage loss, few infiltrated inflammatory cells, and no panus formation or bone resorption” in series [5] (25 mg/kg/day by osmotic pumps). Also, the survival result in series [5] (16 mg/kg/day group, by day 22) is on record as “All of the mice in the 16 mg/kg/day group survived”. In series [5] (25 mg/kg/day group, by day 22), the mice died result was “Eight of 15”. In series [5] (25 and 16 mg/kg/day s.c. osmotic pumps vs vehicle, day 15-22, listed as CA4), the arthritis incidence rate entry was “dose-dependently reduced the arthritis incidence rate”. In addition, in series [5] (25 and 16 mg/kg/day s.c. osmotic pumps, listed as CA4), the “macroscopic arthritis clinical scores of the paws” value is recorded as “reduced the symptomatic macroscopic scores of the paws; also recorded: significantly reduced macroscopic arthritis clinical scores”. Moreover, the body weight entry in series [5] (CA4 treatment by osmotic pumps, FIG. 15C) was “without dramatically affecting body weight”. Further, the “reduction of plasma IL-1β levels” value in series [5] (both CA4-treated groups (25, 16 mg/kg/day), ELISA) was “more than 50%”. In addition, the “titers of Rheumatoid Factors” value in series [5] (both doses of CA4 (25, 16 mg/kg/day), plasma ELISA) was “improved significantly to lower levels”. The “anti-type II collagen antibody titer” value in series [5] (higher dose of CA4 (25 mg/kg/day), plasma ELISA) is recorded as “significantly, albeit modestly, reduced”.
